# How the values were obtained:
# HIF1-α = test: Drug activity in MIO-M1-HRE/GFP cell line under hypoxia (GFP fluorescence); assay type: cell-based; settings: 1% O2, 24 hours (FIG. 25)
# Description: After MIO-M1 Muller cells were transfected with a 5HRE/GFP plasmid (Addgene #46926) (jetPrime kit), plasmid-transfected cells were selected using 1 mg/ml G418 (neomycin) which is a selection marker. A stable cell line was manufactured by selecting cells that were growing in the form of a colony from single cells. The manufactured stable MIO-M1-HRE/GFP cell line was aliquoted into 96 wells and treated with a drug at each concentration the next day. After the cell line was exposed to a hypoxic environment (1% O2) for 24 hours, GFP (Ex/Em: 488/507) fluorescence signals were measured by a SYNERGY NEO microplate reader (BioTek Instrument). As a negative control, DMSO, which is a solvent in which a drug was dissolved, was used, and calculation was performed based on the negative control as 100%.
# TRAP-1 = test: Pull-down assay: client proteins SIRT3 and SDHB on GST-TRAP1 beads; assay type: binding; settings: TRAP1-bead form with isolated mitochondria and drug, 4° C., 18 hours (FIG. 14)
# Description: A pull-down assay was performed to confirm whether SMx competitively binds to SIRT3 and SDHB, which are known as client proteins of TRAP-1. TRAP1 protein in the GST fusion form was purified from bacteria cells and then bound to glutathione beads to make a TRAP1-bead form, and then the TRAP1-bead form was bound to the mitochondria isolated from mammalian cells (Thermo Scientific mitochondria isolation kit) with a drug at 4° C. for 18 hours. The cells were treated with SMx, and gamitrinib and PU-H71, which are previously developed N-terminal domain inhibitors of hsp90s, as the drugs, according to the concentrations shown in the drawing. […] This is strong evidence that SMx has the ability to bind to the middle domain of TRAP-1.
smiles,measurement,setting,value
COC1=C(OC)C(=O)C(CCCCCCCCCC[P+](c2ccccc2)(c2ccccc2)c2ccccc2)=C(C)C1=O [SMx],suppression of neovascularization factor HIF1-α (HRE/GFP signal),HIF1-α,suppressed
same,"binding of the client protein (SIRT3, SDHB) to TRAP-1",TRAP-1,significantly reduced
